Target: T1, CDK1/cyclinB1 (Homo sapiens, UniProt P06493)
T1 construct: made in house; host or cells: High Five insect cells (Trichoplusia ni), baculovirus coinfection
Test: Cyclin B1-CDK1 kinase inhibition test
Assay type: biochemical
Settings: CDK1 tests (Example 13); recombinant cyclin B1/CDK1, substrate histone H1; read-out: CDK1/cyclinB1 IC50 value
Procedure: CDK4) were cloned by standard methods using RT-PCR, and cloned into a transfer vector (cyclin in pAcG2T made by Pharmingen, CDKs in p2Bac made by Invitrogen) for the baculovirus system. […] After thawing the cells were resuspended in lysing buffer (50 mM HEPES pH 7.5, 10 mM MgCl2, 1 mM DTT, 5 μg/ml leupeptin, 5 μg/ml aprotinin, 100 μM NaF, 100 μM PMSF, 10 mM β-glycerolphosphate, 100 μM Na3VO4, 30 mM nitrophenylphosphate, 17.5 ml of lysing buffer per 10^8 cells) and incubated on ice for 30 min. […] Cyclin D1-CDK4 was purified by means of a GST-tag on cyclin D1 and then using glutathione beads (total protein about 0.2 mg/ml). All the kinase tests were carried out in 96-well microtitre plates (Greiner PS) in a final volume of 60 μl. […] As a negative control the kinase reaction was carried out in the absence of the substrate histone H1. As a positive control the kinase reaction was carried out in the absence of a test substance. As an internal control 30 μM and 300 μM (final concentration) of the kinase inhibitor olomoucin (Alexis) were used. […] The kinase reaction is started by the addition of 10 μl of ATP mix (0.045 mM ATP, 0.5 μCi ^33P-ATP in kinase buffer) and incubated for 30 min at 30° C. and 600 rpm in a shaking incubator. After incubation the plates were placed on ice and the proteins were precipitated by the addition of 125 μl of ice-cold 5% trichloroacetic acid. After 15 min on ice the precipitates were transferred onto Packard Unifilter 96 GF/B plates with the Packard Harvester System, and collected by vacuum filtration. The precipitates were washed 4 times with dist. H2O at ambient temperature. The filter plates were then dried at 60° C. and 50 μl of scintillation liquid were added to each well (Ultima Gold, Packard). The plate was sealed up with Sealing Tape and after 1 h measured in a scintillation measuring apparatus (Micro Beta made by Wallac).

T1 sequence (P06493 whole entry): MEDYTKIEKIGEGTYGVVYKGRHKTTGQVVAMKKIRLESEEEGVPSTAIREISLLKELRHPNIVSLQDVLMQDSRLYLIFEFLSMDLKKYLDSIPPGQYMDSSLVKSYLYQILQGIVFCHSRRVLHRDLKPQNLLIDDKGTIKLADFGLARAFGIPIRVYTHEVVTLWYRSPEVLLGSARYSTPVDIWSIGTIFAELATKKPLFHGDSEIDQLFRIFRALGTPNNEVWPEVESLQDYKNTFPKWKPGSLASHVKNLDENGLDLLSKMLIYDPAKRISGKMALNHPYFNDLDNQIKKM
T1 sequence (P14635 whole entry partner): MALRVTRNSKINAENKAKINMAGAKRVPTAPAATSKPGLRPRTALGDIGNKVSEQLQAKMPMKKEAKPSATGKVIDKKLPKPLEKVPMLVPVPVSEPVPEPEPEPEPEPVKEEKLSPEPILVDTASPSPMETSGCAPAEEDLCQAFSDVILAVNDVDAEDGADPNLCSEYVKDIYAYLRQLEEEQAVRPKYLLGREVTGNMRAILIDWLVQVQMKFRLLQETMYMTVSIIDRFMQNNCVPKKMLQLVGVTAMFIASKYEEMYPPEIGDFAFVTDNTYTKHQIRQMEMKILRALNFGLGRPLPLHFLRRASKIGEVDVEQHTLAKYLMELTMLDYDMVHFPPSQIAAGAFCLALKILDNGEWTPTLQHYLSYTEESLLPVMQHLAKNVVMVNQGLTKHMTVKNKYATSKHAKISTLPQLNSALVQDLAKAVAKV

Row | SMILES | IC50 [nM]
1 | CC(=O)NCC1CCCN(c2nc(Nc3ccc(Cl)c(Cl)c3)ncc2C(F)(F)F)C1 (stereo not shown) [Example 1(040), 2-(3,4-dichloro-phenylamino)-4-(3-acetylaminomethyl-piperidin-1-yl)-5-trifluoromethyl-pyrimidine] | < 100
2 | O=C1CCCN1CCCNc1nc(Nc2ccc(Cl)c(Cl)c2)ncc1C(F)(F)F [Example 1(041), 2-(3,4-dichloro-phenylamino)-4-(3-(2-oxo-pyrrolidin-1-yl)-propyl-1-amino)-5-trifluoromethyl-pyrimidine] | < 100
3 | NCC1CCN(c2nc(Nc3cccc(Br)c3)ncc2[N+](=O)[O-])CC1 [Example 1(042), 2-(3-bromo-phenylamino)-4-(4-aminomethyl-piperidin-1-yl)-5-nitro-pyrimidine] | < 100
4 | NCC1CCN(c2nc(Nc3ccc(Br)cc3)ncc2C(F)(F)F)CC1 [Example 1(043)] | < 100
5 | CN1CCC(N(C)c2nc(Nc3ccc(Cl)cc3)ncc2[N+](=O)[O-])CC1 [Example 1(044), 2-(4-chloro-phenylamino)-4-(N-(1-methyl-piperidin-4-yl)-N-methyl-amino)-5-nitro-pyrimidine] | < 100
6 | OCCCCCNc1nc(Nc2ccc(Cl)c(Cl)c2)ncc1C(F)(F)F [Example 1(045), 2-(3,4-dichloro-phenylamino)-4-(5-hydroxy-1-pentylamino)-5-trifluoromethyl-pyrimidine] | < 100
7 | O=C(O)CCc1ccc(Nc2ncc(C(F)(F)F)c(NCCc3cccc(O)c3)n2)cc1 [Example 1(046), 2-(4-(2-carboxy-1-ethyl)-phenylamino)-4-(2-(3-hydroxyphenyl)-1-ethyl-amino)-5-trifluoromethyl-pyrimidine] | < 100
8 | O=C1CCCN1CCCNc1nc(Nc2cccc(Br)c2)ncc1C(F)(F)F [Example 1(047), 2-(3-bromo-phenylamino)-4-(3-(2-oxo-pyrrolidin-1-yl)-propyl-1-amino)-5-trifluoromethyl-pyrimidine] | < 100
9 | O=C1CCCN1CCCNc1nc(Nc2cc(Cl)cc(Cl)c2)ncc1C(F)(F)F [Example 1(049), 2-(3,5-dichloro-phenylamino)-4-(3-(2-oxo-pyrrolidin-1-yl)-propyl-1-amino)-5-trifluoromethyl-pyrimidine] | < 100
10 | O=[N+]([O-])c1cccc(Nc2ncc([N+](=O)[O-])c(N3CCCC(CO)C3)n2)c1 (stereo not shown) [Example 1(050), 2-(3-nitro-phenylamino)-4-(3-hydroxymethyl-piperidin-1-yl)-5-nitro-pyrimidine] | < 100
11 | CC(=O)N(C)CC1CCN(c2nc(Nc3ccc(Cl)cc3)ncc2[N+](=O)[O-])CC1 [Example 1(052), 2-(4-chloro-phenylamino)-4-(4-(N-acetyl-N-methyl-aminomethyl)-piperidin-1-yl)-5-nitro-pyrimidine] | < 100
12 | COc1cc(C(O)CNc2nc(Nc3ccc(Cl)c(Cl)c3)ncc2C(F)(F)F)ccc1O (stereo not shown) [Example 1(053), 2-(3,4-dichloro-phenylamino)-4-(2-(4-hydroxy-3-methoxy-phenyl)-2-hydroxy-1-ethylamino)-5-trifluoromethyl-pyrimidine] | < 100
13 | CN(C)[C@H]1CC[C@H](Nc2nc(Nc3ccc(C(=O)O)cc3)ncc2C(F)(F)F)CC1 [Example 1(054), 2-(4-carboxy-phenylamino)-4-(trans-4-dimethylamino-cyclohexylamino)-5-trifluoromethyl-pyrimidine] | < 100
14 | O=[N+]([O-])c1cnc(Nc2ccc(Cl)cc2)nc1N1CCC[C@H]1CO [Example 1(055), 2-(4-chloro-phenylamino)-4-((2S)-2-hydroxymethyl-pyrrolidin-1-yl)-5-nitro-pyrimidine] | < 100
15 | O=C1CCCN1CCCNc1nc(Nc2cccc(Cl)c2)ncc1C(F)(F)F [Example 1(067), 2-(3-chloro-phenylamino)-4-(3-(2-oxo-pyrrolidin-1-yl)-propyl-1-amino)-5-trifluoromethyl-pyrimidine] | < 100
16 | NCCCOCCCNc1nc(Nc2ccc(Cl)c(Cl)c2)ncc1C(F)(F)F [Example 1(073)] | < 100
